# Literature values, collected in paper PMC8491563 (Journal of controlled release : official journal of the …, 2020).
# System: CCR2
# Settings: in conjunction with nab-paclitaxel/gemcitabine, 21 treated patients
compound,measurement,value
O=C(NCC(=O)N1CC[C@H](N[C@H]2CC[C@@](O)(c3ccc(-c4ncccn4)cn3)CC2)C1)c1cccc(C(F)(F)F)c1 [PF-04136309],patients responding with a reduction in tumor size compared to the baseline,23.8%
